Measured values taken from paper PMC11969024, “Development of chemokine network inhibitors using combinatorial saturation mutagenesis” (Communications Biology, 2025).

Experiments:
J:CXCR1 cells = assay: Chemokine dose-response, J:CXCR1 cell migration; assay type: cell-based, human; conditions: mean of 7 replicates
Procedure: (§1) Cell lines were confirmed mycoplasma free by monthly testing using a MycoAlert^TM kit (LT07-118, Lonza) following the manufacturer’s instructions. THP1 cells: THP1 cells (ECACC 88081201, a human monocyte leukemia cell line[51]) were obtained from ECACC and were cultured in T175 flasks at 0.3-1 × 10^6 cells/mL in Roswell Park Memorial Institute (RPMI) 1640 medium (R0883, Sigma) with 10% FBS (F9665, Sigma) and 5mM L-glutamine (G7513, Sigma), 37 °C, 5% CO2. J:CXCR1 cells: The J:CXCR1 cell line was cultured in the same manner as THP1 cells at 0.15-1 × 10^6 cells per mL[37]. Activated T-cells: T-cells were isolated, activated and expanded as follows. […] The final pellet was resuspended in 1 mL of MACS buffer per 5 mL of initial blood volume and counted using cell size FSC-H/SSC-H parameters with gate settings previously defined by immunostaining (see below). […]
(§2) Cell counts were determined using an ATTUNE NxT Flow Cytometer with Cytkick autosampler (ThermoFisher), based on cell size parameters FSC-H/SSC-H, with previously defined gate settings. FSC-H/SSC-H gate settings for primary white blood cells from buffy coats were determined using flow cytometry to establish the granulocyte, monocyte and lymphocyte populations (Supplementary Fig. 13). […]

[1] = tested on: J:CXCR1 cells (Jurkat cells stably transfected with CXCR1); assay: J:CXCR1 cell migration induced by CXCL6, inhibition by peptide; assay type: cell-based, human; conditions: peptide 10 uM; CXCL6 at EC80; Dunnett's test
Procedure: as §1, with “follows. Briefly, density gradient centrifugation using Lymphoprep^TM density gradient medium (07801, […] Technologies) and a SepMate^TM isolation tube (85450, […] Technologies) was used to isolate peripheral blood mononuclear cells from human leukocyte cones. Two rounds of purification using a human CD8 + T-cell isolation kit (480011, BioLegend) were used to isolate CD8 + T-cells from peripheral blood mononuclear cells. Activation of CD8 + T-cells was performed in ImmunoCult^TM-XF T-cell expansion medium (10982, […] Technologies) with an anti-CD3/anti-CD28 T-cell activator at 25 μl/ml (10991, […] Technologies), supplemented with 10 ng/ml recombinant human IL-2 (200-02, PeproTech) with 1% penicillin/streptomycin.” for “follows.”
as §2

[2] = tested on: THP1 cells, activated T-cells (ATC), J:CXCR1 cells; assay: Meta-analysis of individual chemokine-induced cell migration experiments; assay type: cell-based, human; conditions: seven CC and three CXC chemokines, Dunnett's test
Procedure: Cell migration assays were performed as follows. THP1 cell migration. Briefly, 300000 cells/well were added to the top chamber of a 5-µm 96-well Transwell insert (3387, Corning) in 50 µL of cell migration media (RPMI-1640 (R0883, Sigma), 0.5% FBS (F9665, Sigma), 4mM L-Glutamine (G7513, Sigma), 0.05% DMSO (D4540, Sigma)). The bottom chamber contained 150 µL of migration media with chemokine and peptide. Cells were migrated at 37 °C in 5% CO2 for 4 h. J:CXCR1 cell migration was performed exactly as above using a 3-µm Transwell insert (3385, Corning). Activated T-cell migration. Briefly, 100000 cells/well were added to the top chamber of a 3-µm Transwell insert (3385, Corning) in 50 µL of migration media (HBSS (14025-092, Life Technologies), 0.1% protease free bovine serum albumin (A7030, Sigma), 0.05% DMSO (D4540, Sigma)). The bottom chamber contained 150 µL of migration media with chemokine and peptide. Cells were migrated at 37 °C in 5% CO2 for 2 h. Buffy coat migration. Briefly, a mixture of all cell types at 100000 cells/well were added to the top chamber of a 3-µm Transwell insert (3385, Corning) in 50 µL of migration media (HBSS (14025-092, Life Technologies), 0.1% protease free bovine serum albumin (A7030, Sigma), 0.05% DMSO (D4540, Sigma). The bottom chamber contained 150 µL of migration media with chemokine and peptide. Cells were migrated at 37 °C in 5% CO2 for 2 h. Analysis of cell migration. The migration plate was shaken at 850 RPM for 10 min, and media from bottom plate transferred to a round-bottomed 96 well plate (353910, Falcon). Cells were counted by flow cytometry as described above. Experiments were performed at chemokine EC80 for individual chemotaxis experiments and at EC50 for the pooled chemokine experiments, with three technical replicates, and at least three biological replicates. Statistical significance of differences between control and test groups was evaluated using a two-sided Dunnett’s test with multiple testing correction. Chemokine EC80 or chemokine pool EC50 values were as determined by performing a chemokine dose-response against the cell type and fitting the dose-response curve with a 3-parameter log-logistic model, where the maximal response is fixed at 100% response. […] IC50 was determined by performing inhibitor dose-response experiments and fitting the dose-response curve with a 3-parameter log-logistic model, fixing the bottom of the curve to zero. […] For summary statistics and comparisons, pEC50, pEC80 and pIC50 were calculated as the negative log10 of EC50, EC80 or IC50 expressed in moles/litre.
Sample size and estimated effect sizes were not formally calculated for cell-based or phage-display experiments and no randomization was performed. […]

[3] = tested on: activated CD8+T-cells (ATC); assay: Activated T-cell (ATC) migration induced by individual chemokines, inhibition by peptide; assay type: cell-based, human; conditions: peptide 10 uM; chemokines at EC80; Dunnett's test
Procedure: Cell lines were confirmed mycoplasma free by monthly testing using a MycoAlert^TM kit (LT07-118, Lonza) following the manufacturer’s instructions. THP1 cells: THP1 cells (ECACC 88081201, a human monocyte leukemia cell line[51]) were obtained from ECACC and were cultured in T175 flasks at 0.3-1 × 10^6 cells/mL in Roswell Park Memorial Institute (RPMI) 1640 medium (R0883, Sigma) with 10% FBS (F9665, Sigma) and 5mM L-glutamine (G7513, Sigma), 37 °C, 5% CO2. J:CXCR1 cells: The J:CXCR1 cell line was cultured in the same manner as THP1 cells at 0.15-1 × 10^6 cells per mL[37]. Activated T-cells: T-cells were isolated, activated and expanded as follows. Briefly, density gradient centrifugation using Lymphoprep^TM density gradient medium (07801, […] Technologies) and a SepMate^TM isolation tube (85450, […] Technologies) was used to isolate peripheral blood mononuclear cells from human leukocyte cones. Two rounds of purification using a human CD8 + T-cell isolation kit (480011, BioLegend) were used to isolate CD8 + T-cells from peripheral blood mononuclear cells. Activation of CD8 + T-cells was performed in ImmunoCult^TM-XF T-cell expansion medium (10982, […] Technologies) with an anti-CD3/anti-CD28 T-cell activator at 25 μl/ml (10991, […] Technologies), supplemented with 10 ng/ml recombinant human IL-2 (200-02, PeproTech) with 1% penicillin/streptomycin. T-cells were passaged every 2–3 days in TexMACS medium (130-097-196, Miltenyi Biotec), supplemented with 10 ng/ml human IL-2 (200-05-250, Peprotech) and incubated at 37 °C in 5% CO2. CD8 + T-cells were frozen at day 10-13 after initial activation, at 20×10^6 cell/ml in TexMACS medium supplemented with 10% DMSO (D2650, Sigma) in liquid nitrogen. Activated CD8^+ T-cells were recovered in TexMACs medium at 0.3 × 10^6 cell/ml and incubated at 37 °C in 5% CO2, 24 h prior to use. For buffy coat experiments a mixture of primary human monocytes, granulocytes and lymphocytes was isolated from human buffy coat. Briefly, RBCs were sedimented in HetaSep (07806, […] Technologies) with 1 mL of HetaSep per 5 mL of blood for 15 min at 37 °C. The buffy coat layer was collected from the top and washed in 50 ml MACS buffer (PBS (P4417, Sigma), 0.5% BSA (A7030, Sigma), 0.075% EDTA (E5134, Sigma), pH 7.2), by centrifugation at 2000 g for 10 min at room temperature. The pellet was resuspended in 10 mL of 1x RBC lysis solution (130-094-183, Miltenyi Biotec) and lysed for 10 min at room temperature. The cells were then washed in MACS buffer twice as above. The final pellet was resuspended in 1 mL of MACS buffer per 5 mL of initial blood volume and counted using cell size FSC-H/SSC-H parameters with gate settings previously defined by immunostaining (see below). The leukocytes were then resuspended in assay buffer for cell migration and used within 30 min of isolation.
Cell counts were determined using an ATTUNE NxT Flow Cytometer with Cytkick autosampler (ThermoFisher), based on cell size parameters FSC-H/SSC-H, with previously defined gate settings. FSC-H/SSC-H gate settings for primary white blood cells from buffy coats were determined using flow cytometry to establish the granulocyte, monocyte and lymphocyte populations (Supplementary Fig. 13). Briefly, cells were labelled with anti-CD3 (Miltenyi Biotec, 130-113-135) to identify the T cell population, anti-CD14 (Miltenyi Biotec, 130-110-578) to identify the monocyte population, and with anti-CD16 (Miltenyi Biotec, 130-113-951) to identify the granulocyte population. Negative control cells were labelled with anti-human IgG1 (Miltenyi Biotec, 130-113-434). All antibodies were allophycocyanin (APC) conjugated. 100,000 white blood cells were added to Eppendorf tubes and centrifuged at 300 g for 3 min. The supernatant was discarded, and the cells resuspended in 98 µL of MACS buffer (1× PBS, 2 mM EDTA and 0.5% BSA, sterile filtered). 2 µl of antibody was added to the cells. […]

Lymphocytes = assay: Buffy coat lymphocyte migration induced by disease chemokine pools, inhibition by peptide; assay type: cell-based, human; conditions: peptide 10 uM; pool at EC50; compared to HD2SCR
Source text: (§3) To assess the potential of combinatorially mutated peptides as therapeutic agents in inflammatory disease, we explored their efficacy against pools of chemokines known to be produced in diseased tissues. We developed the chemokine pool approach to represent the naturally occurring mix of chemokines present in diseased tissues as chemokines have well-known synergistic interactions that cannot be recapitulated when studied individually[8],[11],[55]–[60]. We chose three diseases, atherosclerotic plaque, rheumatoid arthritis, and type 1 diabetes as exemplars, as there is considerable evidence supporting the role of chemokines in their pathology[2]–[4]. To develop disease-relevant chemokine pools, we identified well-characterised bulk RNA-sequencing datasets from atherosclerotic plaque (GSE198600) and rheumatoid arthritis synovium (GSE198520)[61],[62]. […] We analysed chemokine expression levels (in transcripts per million) from these datasets (Supplementary Fig. 6). For each disease we designed a synthetic chemokine pool such that individual chemokine molar concentrations were at ratios determined by the mean relative expression of chemokines in the RNA-sequencing dataset. […] In these experiments we also assessed the effect of EVA4, the parental CC-chemokine binding evasin from which the HD2 series was derived.

[4] = lyophilised peptide, data provided by the manufacturer, ref GenScript, cited from earlier work
THP1 cells = assay: THP1 cell migration (Transwell) induced by individual chemokines, inhibition by peptide; assay type: cell-based, human
Procedure: as §1, §2

Monocytes = assay: Buffy coat monocyte migration induced by disease chemokine pools, inhibition by peptide; assay type: cell-based, human; conditions: peptide 10 uM; pool at EC50; compared to HD2SCR
Source text: as §3

Substance: CXCL6: human chemokine, Peprotech 300-41
- Mean pEC50 (J:CXCR1 cells): 7.71 [M]
- Mean pEC80 (J:CXCR1 cells): 7.45 [M]

Substance: EEDDYTAYAPLTCYFC [HD2T16C, HD2 point mutant]
- inhibition of CXCL6-induced migration of J:CXCR1 cells compared to parental HD2 [1]: significant improvement in inhibition
- migrated cell count over all chemokines studied, compared to HD2 (meta-analysis) [2]: significant improvement over HD2
- inhibition of CCL19, CCL21, CXCL9, and CXCL11-induced migration of ATCs compared to parental HD2 [3]: significant improvement in inhibition

Substance: DDDDWDAYAPIWCYFT [HD2CM452, combinatorially mutated HD2 peptide, CM-maxCC group]
- inhibition of lymphocyte migration, atherosclerosis pool (Lymphocytes): significant inhibition
- inhibition of lymphocyte migration, rheumatoid arthritis pool (Lymphocytes): significant inhibition

Substance: EEDDYTAYWPLTCYFT [HD2A9W, HD2 point mutant]
- Solubility, Water ([4]; C-terminal amide): Insoluble
- Solubility, DMSO [4]: Insoluble
- Solubility, HCOOH [4]: Soluble
- Solubility, PBS [4]: Insoluble
- inhibition of CXCL6-induced migration of J:CXCR1 cells compared to parental HD2 [1]: significant improvement in inhibition
- migrated cell count over all chemokines studied, compared to HD2 (meta-analysis) [2]: significant improvement over HD2
- inhibition of CCL19, CCL21, CXCL9, and CXCL11-induced migration of ATCs compared to parental HD2 [3]: significant improvement in inhibition

Substance: DWDDWTAYWDLVCYFD [HD2CM3085, combinatorially mutated HD2 peptide, CM-min group]
- inhibition of CCL8 migration compared to the parental peptide (THP1 cells; peptide 0.1 uM, CCL8 at EC80): significantly worse
- inhibition of CCL7 migration compared to the parental peptide (THP1 cells; peptide 5 uM, CCL7 at EC80): no differently

Substance: DDDDWDDYAPITCYFD [HD2CM539, combinatorially mutated HD2 peptide, CM-max group]
- inhibition of monocyte migration, insulitis pool (Monocytes): significant inhibition
